In patent US20230235279A1, “AMNIOTIC-LIKE EPITHELIAL CELL GENERATION” (THE BABRAHAM INSTITUTE, priority 2020, published 2023):

Tests used:
Assay type in all cases: cell-based, human
[1] = test system: hPSC after 3-5 days of the capacitation; assay: Signalling requirement for hALEC formation (single, joint and alternative MAPK, TGFb, BMP inhibitors); settings: for efficient formation of 3D bubble-like epithelial structures and upregulation of amnion markers: A8301 only, PD03 only or both (AP); for induction of hALEC by alternative MAPK or TGFb pathway inhibitor: Trametinib 5, 10 or 30 nM, SB431542 10 or 20 uM, LY2109761 1 or 5 uM, LY364947 5, 10 or 20 uM
Protocol: (§1) FIGS. 3 (A to I). Signalling requirement for hALEC differentiation: FIG. 3(A) depicts experimental outline; naïve hPSC were capacitated in different conditions for 3 days (2uM XAV939 in N2B27 basal medium (“XAV939”), N2B27 basal medium only (“N2B27”), 1 uM A8301 in N2B27 basal medium (“A8301”), or medium E8 for culturing primed hPSCs (“E8”)), and then differentiated to hALEC in AP media. FIG. 3(B) is whole-well view of cells after hALEC induction stained with fluorescently labelled phalloidin. […] FIGS. 3(F) and (G) show images of cells stained with fluorescently labelled phalloidin and qRT-PCR results, respectively, of hALEC differentiated in the presence of alternative MAPK inhibitors (1 uM PD0325901, or 5 nM, 10 nM or 30 nM Trametinib). FIGS. 3(H) and (I) show images of cells stained with fluorescently labelled phalloidin and qRT-PCR results, respectively, for hALEC differentiated in the presence of alternative TGFb pathway inhibitors (1 uM A8301; 10 or 20 uM SB431542; 1 uM or 5 uM LY2109761; 5 uM or 10uM or 20 uM LY364947).
We next assessed whether the joint inhibition of the TGFb/Activin/Nodal and MAPK pathways is required for the formation of hALEC. We tested this using hPSC after 3-5 days of the capacitation in independent experiments by supplementing their media with either A8301 only (“A”), PD03 only (“P”), neither of the inhibitors (“none”), or both (“AP”).
Therefore, hALEC differentiation is induced specifically by inhibition of MAPK and TGFb pathways and not by other effects of PD0325901 and A8301.
The formation of cells expressing a subset of amnion markers has been previously reported after treating conventional primed hPSC with the growth factor BMP4 (Shao et al. Nat Mater 2017; Shao et al. Nat Commun 2017; Zheng et al. Nature 2019). However, this finding is at odds with the timing of events that occur during embryo development. In particular, primed hPSC closely resemble late post-implantation epiblast cells just prior to the onset of gastrulation (Nakamura et al. Nature 2016), a developmental stage that occurs in humans at around 11-12dpf (Carnegie stage, CS, 5c), which is several days after the emergence of the amnion in the implanting embryo at 7dpf (CS 5a) (The Virtual Human Embryo Atlas). Therefore, BMP-dependent route of differentiation reported in the aforementioned works can’t explain the mechanism of formation of amnion and amniotic cavity in primate embryos. Nevertheless, we tested whether BMP signalling was required for hALEC differentiation by adding a selective BMP receptor (ALK-2, -3, -6) inhibitor called LDN193189 to the AP-containing media (a combination referred to as “DAP” hereafter).

naïve hPSC = assay: hALEC differentiation in AP after capacitation in different conditions; settings: 3 days capacitation in the named condition, then AP; for hALEC differentiation after capacitation condition: morphology and markers
Protocol: as §1
WNT inhibition is beneficial but not essential for the formative transition of hPSC, which is rather guided by their autocrine signalling (Rostovskaya et al. Development 2019). We induced formative transition by the range of conditions: (1) WNT inhibitor XAV939 in N2B27 basal medium; (2) simple withdrawal of the factors (PD0325901, Go6983, XAV939, LIF) for naïve hPSC maintenance from the medium and culturing in basal N2B27 conditions; (3) TGFb inhibitor A8301 in N2B27 basal medium; (4) E8 medium containing TGFb and FGF2 for culturing primed hPSC (Chen et al. Nat Methods 2011); all for 3 days, and then applied AP conditions for differentiation (FIG. 3A). […] Therefore, the ability to form hALEC capable of self-assembly into spheroids, is an intrinsic property of hPSC that is established during capacitation, rather than a property that is acquired in response to exogenous WNT inhibition.

[2] = test system: hPSC at different stages of capacitation; assay: Competence window for hALEC differentiation during capacitation (AP or DAP); settings: hPSC capacitated 8 days, AP medium plus BMP inhibitor
Excerpt: FIGS. 4 (A to G). A competence window for hALEC differentiation during the formative transition: FIG. 4(A) depicts the experimental outline. hPSC (HNES1 line) were capacitated in XAV939 and analysed for their ability to form hALEC each day of capacitation, by treatment with AP of DAP for 4 days. […] FIG. 4(D) is a qRT-PCR for markers in hALEC differentiated using AP medium after various length of capacitation. FIG. 4(E) depicts the immunofluorescence for markers (OCT4, CDX2 and E-cadherin) during the time course of hALEC differentiation using naïve and partially capacitated HNES1. […] FIG. 4(G) is the flow cytometry analysis.
To identify a window during the progression from naïve to primed pluripotency where hPSC have the competence to form amnion, we systematically tested the ability of hPSC at different stages of capacitation to respond to hALEC-inducing cues (FIG. 4A). In these experiments, hALEC differentiation was induced using two alternative media compositions – AP and DAP – in order to assess whether the requirement for BMP pathway activity is altered this window of competence. […] The efficiency of hALEC formation was evaluated visually by their efficiency to form 3D epithelial spheres (FIGS. 4B and 4C), and markers expression (FIG. 4D). […]

Cc1cccc(-c2nn(C(=S)Nc3ccccc3)cc2-c2ccnc3ccccc23)n1 [A8301]
efficient formation of 3D bubble-like epithelial structures and upregulation of amnion markers [1]: Only the cells treated by both inhibitors were able to efficiently form
efficiency of hALEC differentiation after capacitation condition (naïve hPSC): consistently high
hALEC differentiation after capacitation condition (naïve hPSC): successfully differentiated to hALEC

COc1cc(-c2cc(-c3cccc(O)c3)cnc2N)cc(OC)c1OC [K02288]
extension of the window of competence by alternative BMP inhibitor [2]: extension of the window of competence was observed

c1ccc2c(-c3cnn4cc(-c5ccc(N6CCNCC6)cc5)cnc34)ccnc2c1 [LDN193189]
effect of blocking BMP signalling on hALEC differentiation ([1]; added to AP-containing media (DAP)): did not interfere with hALEC differentiation

c1ccc(-c2[nH]ncc2-c2ccnc3ccccc23)nc1 [LY364947]
induction of hALEC by alternative MAPK or TGFb pathway inhibitor [1]: successful induction of hALEC

c1ccc(-c2nn3c(c2-c2ccnc4cc(OCCN5CCOCC5)ccc24)CCC3)nc1 [LY2109761]
induction of hALEC by alternative MAPK or TGFb pathway inhibitor [1]: successful induction of hALEC

O=C(NOC[C@H](O)CO)c1ccc(F)c(F)c1Nc1ccc(I)cc1F [PD03]
efficient formation of 3D bubble-like epithelial structures and upregulation of amnion markers [1]: Only the cells treated by both inhibitors were able to efficiently form

NC(=O)c1ccc(-c2nc(-c3ccc4c(c3)OCO4)c(-c3ccccn3)[nH]2)cc1 [SB431542]
induction of hALEC by alternative MAPK or TGFb pathway inhibitor [1]: successful induction of hALEC

Oc1nc(-c2ccc(C(F)(F)F)cc2)nc2c1CSCC2 [XAV939]
efficiency of hALEC differentiation after capacitation condition (naïve hPSC): consistently high
hALEC differentiation after capacitation condition (naïve hPSC): successfully differentiated to hALEC
